Measured values: ChEMBL document CHEMBL1201862, “PubChem BioAssay data set” (2004)
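Cultured in 96-well plates, cells were exposed to test compound for 48 hours across five concentrations. GI50 marks 50% less growth.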 Activity calls are given as the source filed them. Rule as the data show it: active = GI50 up to about 1.1 µM and inactive = higher.

Assays:
Test in all cases: DTP human tumour cell line panel, 48 h
ACHN = system: ACHN
BT-549 = system: BT-549
CAKI-1 = system: CAKI-1
CCRF-CEM = system: CCRF-CEM
HCC 2998 = system: HCC 2998
KM12 = system: KM12
LOX IMVI = system: LOX IMVI
MCF7 = system: MCF7
MDA-MB-231 = system: MDA-MB-231
MOLT-4 = system: MOLT-4
NCI-H460 = system: NCI-H460
OVCAR-3 = system: OVCAR-3
OVCAR-4 = system: OVCAR-4
OVCAR-8 = system: OVCAR-8
RXF 393 = system: RXF 393
TK-10 = system: TK-10
U-251 = system: U-251
UACC-62 = system: UACC-62
UO-31 = system: UO-31
NCI-H23 = system: NCI-H23

| SMILES | GI50 (ACHN) | GI50 (BT-549) | GI50 (CAKI-1) | GI50 (CCRF-CEM) | GI50 (HCC 2998) | GI50 (KM12) | GI50 (LOX IMVI) | GI50 (MCF7) | GI50 (MDA-MB-231) | GI50 (MOLT-4) | GI50 (NCI-H460) | GI50 (OVCAR-3) | GI50 (OVCAR-4) | GI50 (OVCAR-8) | GI50 (RXF 393) | GI50 (TK-10) | GI50 (U-251) | GI50 (UACC-62) | GI50 (UO-31) | GI50 (NCI-H23) |
| --- | --- | --- | --- | --- | --- | --- | --- | --- | --- | --- | --- | --- | --- | --- | --- | --- | --- | --- | --- | --- |
| CCOC(=O)c1cc([N+](=O)[O-])cc([N+](=O)[O-])c1Sc1[nH]cnc2ncnc1-2 | 1.96 µM (inactive) | 2.24 µM (inactive) | 1.85 µM (inactive) | 0.462 µM (active) | 11.9 µM (inactive) | 5.25 µM (inactive) | 0.454 µM (active) | 1.61 µM (inactive) | 7.01 µM (inactive) | 1.24 µM (inactive) | 8.81 µM (inactive) | 1.12 µM (active) | 1.03 µM (active) | 1.93 µM (inactive) | 1.82 µM (inactive) | 4.5 µM (inactive) | 8.71 µM (inactive) | 4.5 µM (inactive) | 1.75 µM (inactive) |  |
| O=C(Nc1ccc([As](=O)(O)O)cc1)Nc1cccc(Cl)c1Cl | > 100 µM (inactive) | > 100 µM (inactive) | > 100 µM (inactive) |  | > 100 µM (inactive) | > 100 µM (inactive) | > 100 µM (inactive) | > 100 µM (inactive) | 23.3 µM (inactive) |  | > 100 µM (inactive) | > 100 µM (inactive) | 18.7 µM (inactive) | 46.2 µM (inactive) | 22.2 µM (inactive) | 89.1 µM (inactive) | 36.5 µM (inactive) | > 100 µM (inactive) | 40.6 µM (inactive) | > 100 µM (inactive) |
| CSc1c(C#N)c2n(c3ccccc3[n+]2C)c2ncccc12 | 18.7 µM (inactive) | 28.4 µM (inactive) | 21 µM (inactive) | 24.2 µM (inactive) | 30.1 µM (inactive) | 22 µM (inactive) | 14.4 µM (inactive) | 15 µM (inactive) | 18.5 µM (inactive) | 92.5 µM (inactive) | 15.7 µM (inactive) | 22.2 µM (inactive) | 30.8 µM (inactive) | 22.3 µM (inactive) | 17.9 µM (inactive) |  | 24 µM (inactive) | 17.6 µM (inactive) | 16.1 µM (inactive) | 21.5 µM (inactive) |
| COC(=O)C1(C)CCCC2(C)C3CCC4CC3(C=C4CO)CCC12 (configuration not stated) | 41 µM (inactive) | 49.3 µM (inactive) | 43.8 µM (inactive) | 41.7 µM (inactive) | 39.6 µM (inactive) |  | 20.7 µM (inactive) | 22.8 µM (inactive) | 73.5 µM (inactive) | 27.8 µM (inactive) |  | 42.1 µM (inactive) | 68.2 µM (inactive) | 36.9 µM (inactive) | 56.4 µM (inactive) | 91.6 µM (inactive) | 57.4 µM (inactive) | > 100 µM (inactive) | 32.9 µM (inactive) | 38.1 µM (inactive) |
| C[C@]12CC/C(=N\O)C=C1CC[C@@H]1[C@@H]2CC[C@]2(C)C(=N/O)/C(=C/c3ccncc3)C[C@@H]12 | 18.7 µM (inactive) | 36.1 µM (inactive) | 24.2 µM (inactive) |  | 19.1 µM (inactive) | 17.3 µM (inactive) | 20 µM (inactive) | 16.3 µM (inactive) | 20.8 µM (inactive) | 18.8 µM (inactive) | 14.6 µM (inactive) | 20 µM (inactive) | 31.9 µM (inactive) | 24.6 µM (inactive) | 24.3 µM (inactive) | 36.1 µM (inactive) | 29.2 µM (inactive) | 16.4 µM (inactive) | 3.62 µM (inactive) | 31.5 µM (inactive) |
| CC(=O)OC(C)c1cc2c(s1)C(=O)c1ccsc1C2=O (configuration not stated) | 0.158 µM (active) | 0.167 µM (active) | 0.895 µM (active) | 0.204 µM (active) | 0.451 µM (active) | 0.169 µM (active) | 0.0117 µM (active) | 0.0513 µM (active) | 0.209 µM (active) | 0.262 µM (active) |  | 0.0405 µM (active) | 0.664 µM (active) | 0.228 µM (active) | 0.206 µM (active) | 1.22 µM (inactive) | 0.165 µM (active) | 0.0811 µM (active) | 0.184 µM (active) | 0.0575 µM (active) |
